Results: US20150031674A1, “SERINE/THREONINE KINASE INHIBITORS” (GENENTECH, INC., priority 2013, published 2015)

Biological target: human recombinant PAK1-KD protein (Homo sapiens, UniProt Q13153)
Test: PAK1-KD (Kinase Domain) IC50 Zlyte Assay (FRET peptide substrate phosphorylation)
Conditions: Z'-LYTE, Biological Example 1

Sequence of human recombinant PAK1-KD protein (Q13153 270-521 limits assumed): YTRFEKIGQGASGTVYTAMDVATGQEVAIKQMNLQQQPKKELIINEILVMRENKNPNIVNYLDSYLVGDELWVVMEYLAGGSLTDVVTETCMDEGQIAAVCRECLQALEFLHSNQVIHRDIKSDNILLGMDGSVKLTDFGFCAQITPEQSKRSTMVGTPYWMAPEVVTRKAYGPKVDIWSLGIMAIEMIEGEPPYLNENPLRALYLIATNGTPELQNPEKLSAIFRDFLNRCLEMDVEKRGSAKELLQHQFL

Ki [µM] | Structure (SMILES)
0.0218 | Cc1cncc(-c2ccc(-c3cc4cnc(NC(C)C)nc4n(CCC4CNC(=O)C4)c3=O)c(Cl)c2)n1 (single isomer, unassigned) [Example I-98, 6-[2-Chloro-4-(6-methylpyrazin-2-yl)phenyl]-2-(isopropylamino)-8-[2-(5-oxopyrrolidin-3-yl)ethyl]pyrido[2,3-d]pyrimidin-7-one]
0.0045 | CCNc1ncc2cc(-c3ccc(-c4cccc(C)n4)cc3C)c(=O)n(C3COC4(CCNC4)C3)c2n1 (stereo not drawn) [Example I-122, 2-(Ethylamino)-6-[2-methyl-4-(6-methyl-2-pyridyl)phenyl]-8-(1-oxa-7-azaspiro[4.4]nonan-3-yl)pyrido[2,3-d]pyrimidin-7-one]
0.0718 | CCNc1ncc2cc(-c3ccc(-c4cncc(C)n4)cc3Cl)c(=O)n(CCCCO)c2n1 [Example I-36, 6-[2-Chloro-4-(6-methylpyrazin-2-yl)phenyl]-2-(ethylamino)-8-(4-hydroxybutyl)pyrido[2,3-d]pyrimidin-7-one]
0.0476 | CCNc1ncc2cc(-c3ccc(-c4cncc(C)n4)cc3Cl)c(=O)n(CCN3CCN(C)CC3)c2n1 [Example I-27, 6-(2-Chloro-4-(6-methylpyrazin-2-yl)phenyl)-2-(ethylamino)-8-(2-(4-methylpiperazin-1-yl)ethyl)pyrido[2,3-d]pyrimidin-7(8H)-one]
0.0103 | CCNc1ncc2cc(-c3ccc(-c4cccc(C)n4)cc3Cl)c(=O)n(CCS(=O)(=O)C3CNC3)c2n1 [Example I-160, 8-[2-(azetidin-3-ylsulfonyl)ethyl]-6-[2-chloro-4-(6-methyl-2-pyridyl)phenyl]-2-(ethylamino)pyrido[2,3-d]pyrimidin-7-one]
0.0433 | CNc1ncc2cc(-c3ccc(-c4cncc(C)n4)cc3Cl)c(=O)n(CCC3CNC(=O)C3)c2n1 (stereo not drawn) [Example I-109, 6-[2-Chloro-4-(6-methylpyrazin-2-yl)phenyl]-2-(methylamino)-8-[2-(5-oxopyrrolidin-3-yl)ethyl]pyrido[2,3-d]pyrimidin-7-one]
0.011 | CNc1ncc2cc(-c3ccc(-c4cccc(C)n4)cc3Cl)c(=O)n(C[C@H]3[C@@H]4CN(C)C[C@@H]43)c2n1 [Example I-176, 6-[2-chloro-4-(6-methyl-2-pyridyl)phenyl]-2-(methylamino)-8-[[(1R,5S)-3-methyl-3-azabicyclo[3.1.0]hexan-6-yl]methyl]pyrido[2,3-d]pyrimidin-7-one]
0.0325 | CCc1cc(-c2cncc(C)n2)ccc1-c1cc2cnc(NC)nc2n(CCCN)c1=O [Example I-131, 8-(3-aminopropyl)-6-[2-ethyl-4-(6-methylpyrazin-2-yl)phenyl]-2-(methylamino)pyrido[2,3-d]pyrimidin-7-one]
0.0072 | CNc1ncc2cc(-c3ccc(-c4cccc(C)n4)cc3C)c(=O)n(CCS(=O)(=O)CCN)c2n1 [Example I-174, 8-[2-(2-aminoethylsulfonyl)ethyl]-2-(methylamino)-6-[2-methyl-4-(6-methyl-2-pyridyl)phenyl]pyrido[2,3-d]pyrimidin-7-one]
0.0258 | CNc1ncc2cc(-c3ccc(-c4nc(C)cs4)cc3Cl)c(=O)n(C[C@H]3CNCCO3)c2n1 [Example I-189, 6-[2-chloro-4-(4-methylthiazol-2-yl)phenyl]-2-(methylamino)-8-[[(2R)-morpholin-2-yl]methyl]pyrido[2,3-d]pyrimidin-7-one]
0.0257 | CCNc1ncc2cc(-c3ccc(-c4cncc(C)n4)cc3Cl)c(=O)n(C3CCN(C(=O)CN)C3)c2n1 (stereo not drawn) [Example I-28, 8-(1-(2-Aminoacetyl)pyrrolidin-3-yl)-6-(2-chloro-4-(6-methylpyrazin-2-yl)phenyl)-2-(ethylamino)pyrido[2,3-d]pyrimidin-7(8H)-one]
0.0435 | CCNc1ncc2cc(-c3ccc(-c4cncc(C)n4)cc3Cl)c(=O)n(CCC(O)CO)c2n1 (stereo in doubt) [Example I-79, (R)-6-(2-Chloro-4-(6-methylpyrazin-2-yl)phenyl)-8-(3,4-dihydroxybutyl)-2-(ethylamino)pyrido[2,3-d]pyrimidin-7(8H)-one]
0.0107 | Cc1cncc(-c2ccc(-c3cc4cnc(NC5COC5)nc4n(C[C@H]4CNCCO4)c3=O)c(Cl)c2)n1 [Example I-146, 6-[2-Chloro-4-(6-methylpyrazin-2-yl)phenyl]-8-[[(2R)-morpholin-2-yl]methyl]-2-(oxetan-3-ylamino)pyrido[2,3-d]pyrimidin-7-one]
0.0473 | CNc1ncc2cc(-c3ccc(-c4csc(C5CC5)n4)cc3Cl)c(=O)n(C[C@H]3CNCCO3)c2n1 [Example I-185, 6-[2-chloro-4-(2-cyclopropylthiazol-4-yl)phenyl]-2-(methylamino)-8-[[(2R)-morpholin-2-yl]methyl]pyrido[2,3-d]pyrimidin-7-one]
0.104 | CNc1ncc2cc(-c3ccc(-c4cncc(C)n4)cc3Cl)c(=O)n(CC[C@@H](O)CO)c2n1 [Example I-80, 6-(2-Chloro-4-(6-methylpyrazin-2-yl)phenyl)-8-(3,4-dihydroxybutyl)-2-(methylamino)pyrido[2,3-d]pyrimidin-7(8H)-one]
0.0185 | CNc1ncc2cc(-c3ccc(-c4cccc(C)n4)cc3Cl)c(=O)n(CCOC3CN(C)C3)c2n1 [Example I-196, 6-[2-chloro-4-(6-methyl-2-pyridyl)phenyl]-2-(methylamino)-8-[2-(1-methylazetidin-3-yl)oxyethyl]pyrido[2,3-d]pyrimidin-7-one]
0.0476 | CCNc1ncc2cc(-c3ccc(-c4cncc(C)n4)cc3Cl)c(=O)n(CC(C)OC3CNC3)c2n1 (single isomer, unassigned) [Example I-92]
0.11 | CNc1ncc2cc(-c3ccc(-c4cncc(C)n4)cc3Cl)c(=O)n(C3CCS(=N)(=O)CC3)c2n1 (stereo not drawn) [Example I-181, 6-[2-chloro-4-(6-methylpyrazin-2-yl)phenyl]-8-(1-imino-1-oxo-thian-4-yl)-2-(methylamino)pyrido[2,3-d]pyrimidin-7-one]
0.077 | CCNc1ncc2cc(-c3ccc(-c4cncc(C)n4)cc3Cl)c(=O)n(C(C)COC3CNC3)c2n1 (single isomer, unassigned) [Example I-119, 8-[2-(azetidin-3-yloxy)-1-methyl-ethyl]-6-[2-chloro-4-(6-methylpyrazin-2-yl)phenyl]-2-(ethylamino)pyrido[2,3-d]pyrimidin-7-one]
0.0011 | Cc1cccc(-c2ccc(-c3cc4cnc(NC(C)C)nc4n(CCOCCN)c3=O)c(Cl)c2)n1 [Example I-60]
0.0265 | CCc1cc(-c2cccc(C)n2)ccc1-c1cc2cnc(NC3COC3)nc2n(C[C@@H]2CNCCO2)c1=O [Example I-194]
0.0753 | CCNc1ncc2cc(-c3ccc(-c4cncc(C)n4)cc3Cl)c(=O)n(CCCCC(N)=O)c2n1 [Example I-49, 5-[6-[2-Chloro-4-(6-methylpyrazin-2-yl)phenyl]-2-(ethylamino)-7-oxo-pyrido[2,3-d]pyrimidin-8-yl]pentanamide]
0.031 | Cc1cncc(-c2ccc(-c3cc4cnc(NC5(C)COC5)nc4n(CCCC(N)=O)c3=O)c(Cl)c2)n1 [Example I-41, 4-[6-[2-Chloro-4-(6-methylpyrazin-2-yl)phenyl]-2-[(3-methyloxetan-3-yl)amino]-7-oxo-pyrido[2,3-d]pyrimidin-8-yl]butanamide]
0.0096 | CNc1ncc2cc(-c3ccc(-c4cncc(C)n4)cc3Cl)c(=O)n(CCCCCN)c2n1 [Example I-138, 8-(5-aminopentyl)-6-[2-chloro-4-(6-methylpyrazin-2-yl)phenyl]-2-(methylamino)pyrido[2,3-d]pyrimidin-7-one]
